“And” between values parts separate entries of the source, which are not always exact repeats. Equal values may be shown once.
Experiments:
[1] = xn = mol fraction of the nth substance listed

O=C1CCCO1
viscosity
Conditions	293.15 K	298.15 K	303.15 K	308.15 K	313.15 K	318.15 K	323.15 K
100 kPa	1.92 mPa·s	1.73 mPa·s and 1.73 mPa·s (3×)	1.63 mPa·s and 1.63 mPa·s (3×) and 1.59 mPa·s	1.52 mPa·s and 1.52 mPa·s (3×)	1.42 mPa·s and 1.42 mPa·s (3×)	1.35 mPa·s and 1.35 mPa·s (3×)	1.3 mPa·s and 1.3 mPa·s (3×)
101 kPa	–	1.74 mPa·s and 1.764 mPa·s	–	1.477 mPa·s and 1.522 mPa·s and 1.429 mPa·s	–	1.286 mPa·s and 1.33 mPa·s and 1.234 mPa·s	1.206 mPa·s and 1.22 mPa·s
101.3 kPa	–	1.75 mPa·s	–	–	–	–	–
101.33 kPa	1.883 mPa·s	1.738 mPa·s and 1.745 mPa·s	1.765 mPa·s and 1.61 mPa·s and 1.612 mPa·s	1.498 mPa·s	1.39 mPa·s	–	1.213 mPa·s

Brc1ccccc1 + OCCOCCOCCO
viscosity [mPa·s], [1], 101 kPa
Conditions	298.15 K	308.15 K
x2 = 0.0462	1.316	1.168
x2 = 0.1502	2.173	1.769
x2 = 0.2493	3.39	2.568
x2 = 0.3505	5.164	3.674
x2 = 0.4433	7.374	5.002
x2 = 0.4974	8.957	5.935
x2 = 0.5484	10.66	6.933
x2 = 0.6475	14.61	9.221
x2 = 0.7514	19.62	12.15
x2 = 0.8484	25.03	15.37
x2 = 0.937	30.42	18.72

BrCCBr + c1ccccc1
[1], 101.33 kPa
Conditions	viscosity [mPa·s]
298.15 K, x1 = 0.0999	0.6395
298.15 K, x1 = 0.2016	0.6889
298.15 K, x1 = 0.312	0.8229
298.15 K, x1 = 0.4109	0.8428
298.15 K, x1 = 0.5099	0.8941
298.15 K, x1 = 0.6073	1.034
298.15 K, x1 = 0.7101	1.116
298.15 K, x1 = 0.8038	1.253
298.15 K, x1 = 0.9005	1.422
308.15 K, x1 = 0.1052	0.5588
308.15 K, x1 = 0.2078	0.6034
308.15 K, x1 = 0.3146	0.6379
308.15 K, x1 = 0.4086	0.7026
308.15 K, x1 = 0.5068	0.7767
308.15 K, x1 = 0.6088	0.8569
308.15 K, x1 = 0.7019	0.961
308.15 K, x1 = 0.8028	1.128
308.15 K, x1 = 0.9019	1.219

Brc1ccccc1 + c1ccccc1
[1], 101 kPa
Conditions	viscosity [mPa·s]
298.15 K, x1 = 0.0867	0.636
298.15 K, x1 = 0.116	0.649
298.15 K, x1 = 0.8	0.96
303.15 K, x1 = 0.086	0.61
303.15 K, x1 = 0.176	0.653
303.15 K, x1 = 0.268	0.7
303.15 K, x1 = 0.362	0.742
303.15 K, x1 = 0.46	0.785
303.15 K, x1 = 0.561	0.827
303.15 K, x1 = 0.665	0.867
303.15 K, x1 = 0.774	0.909
303.15 K, x1 = 0.884	0.951
308.15 K, x1 = 0.0867	0.558
308.15 K, x1 = 0.116	0.568
318.15 K, x1 = 0.0867	0.492
318.15 K, x1 = 0.116	0.504
323.15 K, x1 = 0.0867	0.461
323.15 K, x1 = 0.116	0.47
323.15 K, x1 = 0.8	0.711

C1COCCO1 + c1ccccc1
[1], 303.15 K, 101 kPa
Conditions	viscosity [mPa·s]
x1 = 0.1009	0.603
x1 = 0.104	0.599
x1 = 0.207	0.644
x1 = 0.3017	0.687
x1 = 0.309	0.686
x1 = 0.4005	0.736
x1 = 0.411	0.733
x1 = 0.4969	0.787
x1 = 0.511	0.779
x1 = 0.6	0.841
x1 = 0.61	0.828
x1 = 0.7019	0.895
x1 = 0.709	0.882
x1 = 0.8015	0.961
x1 = 0.807	0.937
x1 = 0.904	0.991

CC(C)[N+](=O)[O-] + c1ccccc1
[1], 293.15 K, 101.33 kPa
Conditions	viscosity [mPa·s]
x1 = 0.0983	0.631
x1 = 0.2123	0.62
x1 = 0.2863	0.619
x1 = 0.4048	0.622
x1 = 0.5002	0.631
x1 = 0.5981	0.641
x1 = 0.7032	0.661
x1 = 0.7847	0.683
x1 = 0.908	0.731

COC(=O)CC(=O)OC + c1ccccc1
[1], 303.15 K, 101 kPa
Conditions	viscosity [mPa·s]
x1 = 0.0794	0.6916
x1 = 0.1634	0.8208
x1 = 0.2505	0.9519
x1 = 0.3426	1.078
x1 = 0.4381	1.206
x1 = 0.5395	1.341
x1 = 0.6457	1.456
x1 = 0.7579	1.58
x1 = 0.8751	1.696

COc1ccccc1O + c1ccccc1
[1], 303.15 K, 101 kPa
Conditions	viscosity [mPa·s]
x2 = 0.1	3.4
x2 = 0.2	2.49
x2 = 0.3	1.97
x2 = 0.4	1.57
x2 = 0.5	1.29
x2 = 0.6	1.04
x2 = 0.7	0.873
x2 = 0.8	0.742
x2 = 0.9	0.641

Ic1ccccc1 + c1ccccc1
viscosity [mPa·s], [1], 101 kPa
Conditions	298.15 K	308.15 K	318.15 K	323.15 K
x1 = 0.0668	0.646	0.565	0.499	0.469
x1 = 0.0896	0.66	0.578	0.512	0.478
x1 = 0.8	1.274	–	–	0.917

COc1ccccc1O + c1ccncc1
[1], 303.15 K, 101 kPa
Conditions	viscosity [mPa·s]
x2 = 0.1	5.04
x2 = 0.2	5.38
x2 = 0.25	5.4
x2 = 0.27	5.42
x2 = 0.3	5.4
x2 = 0.4	4.94
x2 = 0.5	4
x2 = 0.6	3.3
x2 = 0.7	2.07
x2 = 0.8	1.48
x2 = 0.9	1.09

Source: the CheMixHub viscosity set
